The target of test [1] is T1, Aldo-keto reductase family 1 member C2 (Homo sapiens, UniProt P52895).
T1 sequence (P52895 whole entry): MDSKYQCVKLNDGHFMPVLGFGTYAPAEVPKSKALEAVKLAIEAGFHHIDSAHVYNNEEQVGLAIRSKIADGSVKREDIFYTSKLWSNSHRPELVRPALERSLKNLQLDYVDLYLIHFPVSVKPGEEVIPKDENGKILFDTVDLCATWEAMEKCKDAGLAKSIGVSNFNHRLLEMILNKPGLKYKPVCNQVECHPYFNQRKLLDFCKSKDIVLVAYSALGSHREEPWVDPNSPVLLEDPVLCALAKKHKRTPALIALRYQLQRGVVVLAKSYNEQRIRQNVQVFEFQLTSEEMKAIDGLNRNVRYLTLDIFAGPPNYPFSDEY

Test [2] has as its target T2, Aldo-keto reductase family 1 member C4 (Homo sapiens, UniProt P17516).
T2 sequence (P17516 whole entry): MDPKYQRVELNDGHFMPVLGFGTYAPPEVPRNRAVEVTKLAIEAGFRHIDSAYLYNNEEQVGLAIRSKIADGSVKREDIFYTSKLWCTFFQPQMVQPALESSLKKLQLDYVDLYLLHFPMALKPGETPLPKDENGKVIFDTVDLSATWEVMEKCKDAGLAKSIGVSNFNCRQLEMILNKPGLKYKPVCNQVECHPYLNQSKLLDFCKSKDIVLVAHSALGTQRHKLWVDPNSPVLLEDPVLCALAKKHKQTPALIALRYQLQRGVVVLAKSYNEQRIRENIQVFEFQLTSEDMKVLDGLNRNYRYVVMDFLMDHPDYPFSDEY

Test [3] deals with T3, Aldo-keto reductase family 1 member C1 (Homo sapiens, UniProt Q04828).
T3 sequence (Q04828 whole entry): T1 sequence (P52895 whole entry) with V38T, H47R, V54L, S87C, M151V, H170R, L172Q

Test [4] concerns the target T4, Aldo-keto reductase family 1 member C3 (Homo sapiens, UniProt P42330).
T4 sequence (P42330 whole entry): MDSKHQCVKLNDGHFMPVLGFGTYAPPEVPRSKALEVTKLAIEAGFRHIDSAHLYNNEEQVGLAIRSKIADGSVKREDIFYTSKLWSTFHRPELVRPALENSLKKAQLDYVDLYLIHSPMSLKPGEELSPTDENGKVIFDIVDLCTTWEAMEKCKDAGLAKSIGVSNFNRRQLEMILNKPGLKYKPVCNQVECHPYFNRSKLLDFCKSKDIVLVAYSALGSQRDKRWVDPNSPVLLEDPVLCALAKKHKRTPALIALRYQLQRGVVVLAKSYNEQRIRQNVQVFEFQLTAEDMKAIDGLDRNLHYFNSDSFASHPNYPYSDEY
Kind of test: biochemical.
Description: Inhibition of human recombinant N-terminal His6-tagged AKR1C3 expressed in Escherichia coli BL21(DE3) cells using 8-Acetyl-2,3,5,6-tetrahydro-1H,4H-11-oxa-3a-aza-benzo[de]anthracen-10-one as substrate after 1 hr by fluorimetric analysis

In test [5] the target is T4, Aldo-keto reductase family 1 member C3. Description: Inhibition of AKR1C3 overexpressed in human HCT116 cells assessed as inhibition of PR-104A conversion to hydroxylamine after 2 hrs by LC-MS/MS analysis.
In test [6] the target is T3, Aldo-keto reductase family 1 member C1. Kind of test: Inhibition of human recombinant AKR1C1 expressed in Escherichia coli BL21(DE3) using phenanthrenequinone as substrate by spectrophotometric analysis.
In test [7] the target is T4, Aldo-keto reductase family 1 member C3.
Test [8] addresses T2, Aldo-keto reductase family 1 member C4. Description: Inhibition of human recombinant AKR1C4 expressed in Escherichia coli BL21(DE3) using phenanthrenequinone as substrate by spectrophotometric analysis.

13 compounds from ChEMBL document CHEMBL2169839 (J Med Chem, 2012) can be followed below.

As usually defined, the pIC50 is −log10 of the IC50, conventionally taken in molar units. Broadly, the pKi is the negative decadic logarithm of the Ki, by convention in mol/L.

SMILES strings stand for the structures. Substitutions are numbered along the chain they refer to. pIC50, pKi: −log10 of the molar value. A value given as a limit tells only on which side of the number the result lay.

In the case of `O=C(O)c1cccc(S(=O)(=O)N2Cc3ccccc3C2)c1`, the negative-log IC50 (pIC50) in test [1] is less than 4.52; in test [2], less than 4.52; in test [3], 5.41; in test [4], 7.33; in test [5] it was 6.05.
In the case of `O=C(O)c1cccc(S(=O)(=O)N2CCc3ccccc3C2)c1`, the pIC50 in test [1] was less than 4.52; in test [2], less than 4.52; in test [3], 4.69; in test [4] it was 7.89; in test [5] it was 7.57.
For `O=C(O)[C@H]1CCCN(S(=O)(=O)c2ccc3ccccc3c2)C1`, the pIC50 is less than 5.52 in test [1]; less than 5.52 in test [2]; less than 4.52 in test [3]; 6.40 in test [4]; less than 6.00 in test [5].
Regarding `O=C(O)c1cccc(S(=O)(=O)N2CCCc3ccccc32)c1`, the negative logarithm of the IC50 (pIC50) is less than 4.52 in test [1]; less than 4.52 in test [2]; less than 4.52 in test [3]; 6.70 in test [4]; less than 6.00 in test [5].
Regarding `O=C(O)c1cn(S(=O)(=O)c2ccc(Br)cc2)c2ccccc12`, the pIC50 in test [1] is less than 4.52; in test [2] it was less than 4.52; in test [3], 6.08; in test [4], 7.17; in test [5] it was 6.39.
As to `CC1c2ccccc2CCN1S(=O)(=O)c1cccc(C(=O)O)c1` (stereo not drawn), the pIC50 in test [1] was less than 4.52; in test [2], less than 4.52; in test [3], less than 4.52; in test [4], 7.57; in test [5], 7.62.
Turning to `CC1Cc2ccccc2CN1S(=O)(=O)c1cccc(C(=O)O)c1` (stereo not drawn), the negative logarithm of the IC50 (pIC50) was less than 4.52 in test [1]; less than 4.52 in test [2]; less than 4.52 in test [3]; 8.07 in test [4]; 6.75 in test [5].
`Nc1cccc2c1CCN(S(=O)(=O)c1cccc(C(=O)O)c1)C2`: the negative-log IC50 (pIC50) was less than 4.52 in test [1]; less than 4.52 in test [2]; less than 4.52 in test [3]; 7.28 in test [4]; 6.71 in test [5].
On to `O=C(O)c1cccc(S(=O)(=O)N2CCc3c(cccc3[N+](=O)[O-])C2)c1`, for which the negative-log IC50 (pIC50) in test [1] was less than 4.52; in test [2], less than 4.52; in test [3], 4.61; in test [4] it was 8.05; in test [5], 7.54.
As to `O=C(O)c1cccc(S(=O)(=O)N2CC=CCC2)c1`, the pIC50 in test [1] is less than 4.52; in test [2] it was less than 4.52; in test [3], less than 4.52; in test [4] it was 6.41; in test [5], less than 6.00.
As to `O=C(O)c1cccc(S(=O)(=O)N2CCc3sccc3C2)c1`, the pIC50 was less than 4.52 in test [1]; less than 4.52 in test [2]; less than 4.52 in test [3]; 7.60 in test [4]; 7.47 in test [5].
On to `O=C(O)c1cccc(S(=O)(=O)N2CCc3ccccc32)c1`, for which the pIC50 is less than 4.52 in test [1]; less than 4.52 in test [2]; 5.18 in test [3]; 6.68 in test [4]; less than 6.00 in test [5].
`CC/C=C\C[C@H]1C(=O)CC[C@@H]1CC(=O)O` [JASMONIC ACID]: the negative logarithm of the Ki (pKi) in test [6] was 3.97; in test [7], 3.79; in test [8], 4.43.
